Results on 79 molecules are retold here after the METLIN SMRT retention time set (Domingo-Almenara et al. 2019).

This data set in a line: gradient 5% acetonitrile 3 min, to 50% in 2 min, to 85% in 15 min, held 3 min, 100 µL/min. The note with it: column: Zorbax Extend-C18 2.1 x 50 mm; eluents: water / acetonitrile, 0.1% formic acid. In outline: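 Retention time was recorded from adduct peaks, which were picked computationally and each inspected manually. Pure standards ran in mixtures of ~100 molecules on HPLC coupled to a quadrupole time-of-flight mass spectrometer, in positive and negative ionization mode, through a Zorbax Extend-C18 column (2.1 × 50 mm, 1.8 μm) at 100 μL/min. Eluents were water and acetonitrile, each with 0.1% formic acid.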
In turn, `O=C(Nc1ccc2ncnc(N3CCCC3)c2c1)C1CCC1` showed an RP-LC retention time of 628 s.

Turning to `CC1(C(=O)NCc2ccc(F)cc2)Cn2cnc(C(=O)NC3CCCCC3)c2C(=O)N1C1CC1` (centres undefined), the RP-LC retention time worked out at 765 s. For `Cc1ccc2c(=O)c(C(=O)N3CCOCC3)cn(CC(=O)NCCC3=CCCCC3)c2n1`, the RP-LC retention time was 713 s. Turning to `COc1ccc(-c2coc3cc(OC(=O)c4ccc5c(c4)OCO5)ccc3c2=O)cc1OC`, the RP-LC retention time stood at 981 s. The value for `COc1cn(CC(=O)NCc2ccco2)c(CO)cc1=O` was 544 s. The figure for `CC1(C)CC(=O)c2cn(-c3ccccc3)c(=O)c(C(=O)N3CCCC3)c2C1` is 699 s; for `COc1cccc(NC(=O)NCCC2CCN(S(=O)(=O)c3ccccc3)CC2)c1` it is 870 s; for `CCCCOc1ccc(C(=O)N2CCN(c3cc(C)nc(N4CCCCC4)n3)CC2)cc1` it is 816 s. The figure for `Cc1ccc(NC(=O)NC2CCN(c3ccc(C)c(C)c3)C2=O)cc1` (centres undefined) is 931 s; for `C[C@H]1CN(C(=O)COc2ccc(F)cc2)C[C@@H]1c1nc(-c2ccncc2)no1` it is 793 s; for `CCc1ccc(NC(=O)C2CCCN2S(=O)(=O)c2cc3c(cc2C)NC(=O)C(C)O3)cc1` (centres undefined) it is 842 s. On to `CC(C)OCCCNC(=O)Cn1cccc1-c1nc(-c2ccc(Cl)cc2)cs1`, for which the RP-LC retention time amounted to 1100 s. On to `Cn1ncc(Cl)c1C(=O)N1CCCC1c1ccc(F)cc1` (centres undefined), for which the RP-LC retention time came to 825 s. The figure for `O=C1NCCOCCN(S(=O)(=O)c2cccc(F)c2)[C@H]2CCC[C@@H]12` is 748 s; for `COC(=O)C1=CN(c2cccc(Cl)c2)c2cc(F)ccc2S1(=O)=O` it is 897 s; for `COC(=O)C1=CN(c2ccc(C)cc2)c2ccccc2S1(=O)=O` it is 862 s. The value for `Cc1ccccc1-c1noc(-c2cccn(CC(=O)NC(C)C)c2=O)n1` was 761 s; that for `Cc1ccc(NC(=O)Nc2ccc(CC(N)=O)cc2)cc1C` was 675 s; that for `Cc1cc(NC(=O)C2CCN(S(C)(=O)=O)c3ccccc3O2)ccc1Br` (centres undefined) was 1040 s. The figure for `CCCCC(=O)Nc1ccc2c(c1)nc(CN1CCN(S(C)(=O)=O)CC1)n2CC` is 635 s; for `CCCNC(=O)N1[C@H]2CC[C@@H]1c1cnc(-c3ccccc3)nc1C2` it is 790 s; for `CCc1nc(-c2cc(S(=O)(=O)N3CCC(C(=O)Nc4ccc(OC)cc4)CC3)c(C)s2)no1` it is 1000 s.

Consider `CCCS(=O)(=O)N1CCc2ccc(NC(=O)c3ccno3)cc2C1`, for which the RP-LC retention time came to 716 s. For `Cc1ccc(Nc2c(-c3ccccc3O)nc3ncccn23)cc1C`, the RP-LC retention time was 951 s. As for `CC(=O)N1C[C@@H](C(=O)NCCc2c(C)noc2C)[C@H](c2nc(C)no2)C1`, the RP-LC retention time came out at 609 s. The value for `O=C(COc1ccccc1Cl)N1CCCCC1CCN1CCCC1` (centres undefined) was 656 s; that for `CC(C)n1cnc(S(=O)(=O)N2CCC(C(=O)N3CCN(c4ccc(Cl)cc4)CC3)CC2)c1` was 865 s. Turning to `Cc1ccccc1-c1noc(Cn2nc(-c3ccccc3F)ccc2=O)n1`, the RP-LC retention time came out at 986 s. The value for `CCCS(=O)(=O)N1CCC2(CC1)CN(c1cccc(F)c1)C2c1ccccc1` (centres undefined) was 1290 s; that for `Nc1cc(C2CCN(C(=O)Nc3cccc(Cl)c3)CC2)no1` was 727 s.

On to `O=C(c1ccc2cc[nH]c2c1)N1CCN(C(=O)c2cc(-c3ccncc3)n[nH]2)CC1`, for which the RP-LC retention time came out at 594 s. The value for `COc1cccc(N2CC(C)Cn3c2nc2c3c(=O)n(Cc3c(F)cccc3Cl)c(=O)n2C)c1` (centres undefined) was 1080 s; that for `COc1cc(NC(=O)Cn2ccc3ccc(-c4nnc(C)o4)cc32)cc(OC)c1OC` was 726 s; that for `COc1ccc(-c2noc(NCC3CCCO3)n2)cc1` (centres undefined) was 765 s.

In the case of `CCCn1ncc(N2CCC(C(=O)N3CCC(C)CC3)CC2)cc1=O`, the RP-LC retention time came to 734 s. The figure for `Cc1ccccc1Nc1c(-c2cccc(O)c2)nc2ccc(Br)cn12` is 727 s; for `COc1ccc(CNC(=O)c2cn(-c3cc(N(C)C)ncn3)cn2)cc1` it is 743 s. The value for `CSc1ccc(-c2nc3ccc(C)cn3c2NC2CCCCC2)cc1` was 878 s; that for `Cn1ncc2c3ccccc3n(CC(=O)NCCCN3CCC(N4CCCCC4)CC3)c2c1=O` was 527 s. The figure for `O=C(CN1C(=O)NC2(CCCCC2)C1=O)Nc1ccccc1Cl` is 764 s; for `CC(Oc1cc(O)c2c(=O)cc(-c3ccccc3)oc2c1)C(=O)c1ccccc1` (centres undefined) it is 1210 s; for `O=C(NCc1csc(C2CCN(C(=O)c3ccc(F)c(F)c3)CC2)n1)C1CCC1` it is 742 s. Molecule `COc1ccc(S(=O)(=O)NCc2ccc3c(c2)CCN3C(=O)CC(C)C)cc1OC` registered an RP-LC retention time of 858 s. The value for `Cc1ccccc1NC(=O)C1CC(=O)N(c2ccc3c(c2)CCN3C(=O)C2CC2)C1` (centres undefined) was 717 s; that for `COc1ccc(-c2cn3c(CC(=O)NCc4cc(OC)c(OC)c(OC)c4)csc3n2)cc1OC` was 652 s. The value for `COc1ccc(-c2csc(NC(=O)c3cccc([N+](=O)[O-])c3C(=O)O)n2)cc1` was 938 s; that for `COCCCNC(=O)N1CCCN(C2=NS(=O)(=O)C(c3ccc(C)cc3)=C2C)CC1` was 730 s.

`CN1CCN(CCCNC(=O)C2CCN(c3nc4cccnc4s3)CC2)CC1` had an RP-LC retention time of 558 s. In turn, `CCC(C)NC(=O)Cn1nc2c3cc(-c4ccc(Cl)cc4)nn3ccn2c1=O` (centres undefined) displayed an RP-LC retention time of 868 s. For the molecule `CCc1ccc(NC(=O)C2CCCN(c3nccnc3Sc3ccc(C)cc3)C2)cc1` (centres undefined), the RP-LC retention time stood at 1290 s. The value for `CCCN1C(=O)c2cc(S(=O)(=O)NC(C)C)ccc2Oc2cccnc21` was 960 s.

The molecule `CCN1c2cc(C(=O)NC3CCCCC3)ccc2C(=O)N2CCCCC21` (centres undefined) gave an RP-LC retention time of 853 s.

In turn, `CC(C)c1nnc(NC(=O)C2CCN(C(=O)c3ccccc3F)CC2)s1` showed an RP-LC retention time of 727 s. The figure for `COc1ccc(Cl)cc1NC(=O)N1CCC2(CC1)NC(=O)c1ccccc1O2` is 1190 s; for `Cc1oc(-c2[nH]ncc2C(=O)N2CCCC2)cc1S(=O)(=O)NCCCOC(C)C` it is 655 s; for `CCN1C(=O)c2ccccc2Oc2ccc(C(=O)NCCc3ccccc3)cc21` it is 845 s. In turn, `O=C(c1ccc(Cl)cc1)N1CCc2nc(-c3ccc(Cl)cc3)ncc2C1` yielded an RP-LC retention time of 1140 s. Turning to `O=C1CC(c2cccs2)Cc2nc(N3CCN(c4ccccn4)CC3)ncc21` (centres undefined), the RP-LC retention time worked out at 674 s. On to `Cc1ccc2c(c1)C(=O)NC1(CCN(C(=O)c3ccc(F)c(F)c3)CC1)N2C`, for which the RP-LC retention time turned out to be 795 s. Turning to `Cc1cnc(C2CC2)n1C1CCN(Cc2ccc(F)cc2F)C1` (centres undefined), the RP-LC retention time came to 559 s.

As to `CCCC(=O)N1CC(c2nc(-c3ccc(F)cc3)no2)C2(CCOCC2)C1` (centres undefined), the RP-LC retention time stood at 872 s.

As to `CCCNc1cc(N2CCC(CCC(=O)NCc3ccc(F)cc3F)CC2)ncn1`, the RP-LC retention time came out at 694 s.

In the case of `COc1ccc(-c2nnc(-c3ccc(OC)c(S(=O)(=O)N4CCCC4)c3)o2)cc1OC`, the RP-LC retention time came out at 844 s.

In turn, `CC(=O)N1CCc2ccccc2C1C(=O)N1CCN(c2ccccn2)CC1` (centres undefined) yielded an RP-LC retention time of 587 s. The figure for `Cc1[nH]c(C)c(S(=O)(=O)N2CCC(C(=O)Nc3ccc(F)cc3F)CC2)c1C(=O)N1CCCC1` is 676 s; for `CCCNC(=O)C1CCCN(c2ccc(SCC(=O)Nc3cccc(Cl)c3C)nn2)C1` (centres undefined) it is 720 s.

As to `Cc1ccccc1-c1noc(-c2ccc(S(=O)(=O)N3CCCC3)o2)n1`, the RP-LC retention time was found to be 1070 s.

Molecule `CCn1c(=O)c2cc(C(=O)Nc3cccc(C(=O)OC)c3)nn2c2ccccc21` gave an RP-LC retention time of 977 s. The figure for `Cc1nc(-c2cn(-c3cccc(Cl)c3)nn2)no1` is 858 s; for `Cc1c(Cl)cccc1NC(=O)C1CCCN(c2nnc(C)c3c(C)n(-c4ccccc4)nc23)C1` (centres undefined) it is 784 s; for `COc1cccc(S(=O)(=O)N2CCC3(CC2)CC(OCC2CC2)CCO3)c1` (centres undefined) it is 1010 s. The molecule `Cc1c(Cl)cccc1-c1ccc(CNCCc2ccc(S(N)(=O)=O)cc2)o1` gave an RP-LC retention time of 704 s.

Molecule `Cn1c(CNC(=O)CSc2nnc(-c3ccc4c(c3)OCO4)o2)nc2ccccc21` came in with an RP-LC retention time of 1020 s. For `CCn1cc(-c2ccc(Cl)cc2)cc1C(=O)NCc1cccnc1`, the RP-LC retention time was 738 s. The value for `CC(C)NC[C@@H](C(=O)N1CCN(c2ncnc3c2[C@H](C)C[C@H]3O)CC1)c1ccc(Cl)cc1` was 610 s; that for `Cc1cc(NC(=O)C2CCN(S(=O)(=O)c3cn(C(C)C)cn3)CC2)ccc1Br` was 876 s; that for `CC(=O)c1cccc(NC(=O)CN2CCCN(Cc3cccc(F)c3)S2(=O)=O)c1` was 880 s. In turn, `CC(C)(C)NC(=O)c1cc2c(s1)N(CC1CC1)CCCC2` showed an RP-LC retention time of 1200 s. Molecule `COc1ccc(NC(=O)Cn2ccnc2-c2ccnc(N3CCOCC3)c2)cc1Cl` had an RP-LC retention time of 631 s.
